In the supplement of paper PMC4862054:

Tests used:
Settings in all cases: incubation time: 72 h
CAL-148 [1] = experiment: normalised response (% of control), CellTiter-Glo; higher = more viable cells (100 = DMSO, 0 = benzethonium chloride kill control)
In short: (§1)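 A 20 µl suspension of breast cancer cells was seeded into each well of 384-well plates containing compound at 5 concentrations in 10-fold steps over a compound-specific 10,000-fold range. After 72 h incubation, CellTox Green fluorescence (485/520 nm) was read first, and CellTiter-Glo luminescence was read after 10 min at room temperature. Each plate was normalised against 0.1 % DMSO (100) and a positive kill control (0), and each value is the normalised signal at one concentration.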

MDA-MB-468 [2] = experiment: as above
In short: as §1

SK-BR-3 [3] = experiment: as above
In short: as §1

MCF-10A [4] = experiment: as above
In short: as §1

HCC1599 [5] = experiment: as above
In short: as §1

CAL-85-1 [6] = experiment: as above
In short: as §1

MDA-MB-453 = experiment: as above
In short: as §1

HDQ-P1 [7] = experiment: as above
In short: as §1

MFM-223 [8] = experiment: as above
In short: as §1

HCC1937 = experiment: as above
In short: as §1

MDA-MB-231 [9] = experiment: as above
In short: as §1

HCC1143 [10] = experiment: as above
In short: as §1

MDA-MB-436 = experiment: as above
In short: as §1

DU-4475 = experiment: as above
In short: as §1

CAL-148 [11] = experiment: drug sensitivity score (DSS), CellTiter-Glo (DSS (AUC-based score)); higher = stronger drug effect (viability inhibition or cytotoxicity); extreme values may be limits of the assay
In short: (§2)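 Normalisation on every plate relied on 0.1 % DMSO and a positive kill control. The plates, 384-well format, held compound at 5 concentrations 10-fold apart across a compound-specific 10,000-fold range, and breast cancer cell lines in 20 µl suspension were incubated on them for 72 h before CellTox Green and then CellTiter-Glo readings. The drug sensitivity score derives from the area under the fitted dose-response curve.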

MDA-MB-468 [12] = experiment: as above
In short: as §2

CAL-51 = experiment: as above
In short: as §2

SK-BR-3 [13] = experiment: as above
In short: as §2

MCF-10A [14] = experiment: as above
In short: as §2

HCC1599 [15] = experiment: as above
In short: as §2

CAL-85-1 [16] = experiment: as above
In short: as §2

HDQ-P1 [17] = experiment: as above
In short: as §2

MFM-223 [18] = experiment: as above
In short: as §2

CAL-120 = experiment: as above
In short: as §2

Hs578T = experiment: as above
In short: as §2

MDA-MB-231 [19] = experiment: as above
In short: as §2

HCC1143 [20] = experiment: as above
In short: as §2

Compound	normalised response (CAL-148 [1]) [%]	normalised response (MDA-MB-468 [2]) [%]	normalised response (SK-BR-3 [3]) [%]	normalised response (MCF-10A [4]) [%]	normalised response (HCC1599 [5]) [%]	normalised response (CAL-85-1 [6]) [%]	normalised response (MDA-MB-453) [%]	normalised response (HDQ-P1 [7]) [%]	normalised response (MFM-223 [8]) [%]	normalised response (HCC1937) [%]	normalised response (MDA-MB-231 [9]) [%]	normalised response (HCC1143 [10]) [%]	normalised response (MDA-MB-436) [%]	normalised response (DU-4475) [%]	drug sensitivity score (CAL-148 [11])	drug sensitivity score (MDA-MB-468 [12])	drug sensitivity score (CAL-51)	drug sensitivity score (SK-BR-3 [13])	drug sensitivity score (MCF-10A [14])	drug sensitivity score (HCC1599 [15])	drug sensitivity score (CAL-85-1 [16])	drug sensitivity score (HDQ-P1 [17])	drug sensitivity score (MFM-223 [18])	drug sensitivity score (CAL-120)	drug sensitivity score (Hs578T)	drug sensitivity score (MDA-MB-231 [19])	drug sensitivity score (HCC1143 [20])
C[C@@H](C(=O)O)c1ccc(-c2ccccc2)c(F)c1 [Tarenflurbil] (10000 nM)	88.3	91.5	93.3	99.4	92.4	98.8	93.7	98.5	92.8	96.9	98.7	98.7	108	96.7													
COc1cc2c(N3CCN(C(=O)Nc4ccc(OC(C)C)cc4)CC3)ncnc2cc1OCCCN1CCCCC1 [Tandutinib] (1000 nM)	97.8	99.7	99	87	106	98	99.1	99.1	98.8	100	106	95.7	109	97.7													
NC1(c2ccc(-c3nc4ccn5c(=O)[nH]nc5c4cc3-c3ccccc3)cc2)CCC1 [MK-2206] (1000 nM)	59.7	83	52.1	83.3	72.6	86.1	36.6	81.4	46.9	86	86.1	84	98.2	87.3													
O=C(c1cc(Cc2n[nH]c(=O)c3ccccc23)ccc1F)N1CCN(C(=O)C2CC2)CC1 [Olaparib] (10000 nM)	64.6	69.5	78.7	92.8	95.3	87.5	144	87.8	88.5	91.6	77.2	87.3	62.2	85.7													
CCc1c(C(=O)C(N)=O)c2c(OCC(=O)O)cccc2n1Cc1ccccc1 [Varespladib]															0	0	0	0	0	0	0	0	0	0	0	0	0
